Measurements published in patent US20100173943A1, “INSECTICIDAL COMPOSITIONS WITH IMPROVED ACTION” (BAYER CROPSCIENCE AG, priority 2007, published 2010).

Legend:
[1] = test system: cotton aphid (Aphis gossypii); assay: Aphis gossypii test (APHIGO spray treatment); format: in vivo; details: cotton leaves sprayed, 6 days; for pest or weed control at 0.8 ppm: 0.8 ppm a.i. alone; for pest or weed control at 100 ppm: 100 ppm a.i. alone; for pest or weed control at 4 ppm: 4 ppm a.i. alone
Procedure: Aphis gossypii Test (APHIGO Spray Treatment)
(§1) Solvent: 7 parts by weight of dimethylformamide
(§2) Emulsifier: 2 parts by weight of alkylaryl polyglycol ether
(§3) To prepare a ready-to-use active ingredient formulation, 1 part by weight of active ingredient is mixed with the specified amounts of solvent and emulsifier and the concentrate is diluted with emulsifier-containing water to the desired concentration. In the case that addition of ammonium salts, penetrants, or ammonium salts and penetrants is required, they are pipetted in each case into the finished preparation solution after dilution in a concentration of 1000 ppm each.
Cotton leaves (Gossypium hirsutum) highly infested by the cotton aphid (Aphis gossypii) are sprayed with an active ingredient formulation with the desired concentration.
After the desired period, the kill rate in % is determined. 100% means that all aphids have been killed; 0% means that no aphids have been killed.

[2] = test system: green peach aphid (Myzus persicae); assay: Myzus persicae test (MYZUPE); format: in vivo; details: pepper plants sprayed, 6 days; for pest or weed control at 0.8 ppm: 0.8 ppm a.i. alone; for pest or weed control at 4 ppm: 4 ppm a.i. alone; for pest or weed control at 20 ppm: 20 ppm a.i. alone
Procedure: Myzus persicae Test (MYZUPE)
as §1, §2
as §3, with “prepare an appropriate” for “prepare a ready-to-use”, “the given” for “the specified”, “and emulsifier,” for “and emulsifier”, “are pippetted” for “are pipetted”
Pepper plants (Capsicum annuum) highly infested by the green peach aphid (Myzus persicaei) are treated by spraying with the active ingredient formulation in the desired concentration.
After the desired time, the kill rate in % is determined. 100% means that all animals have been killed; 0% means that no animals have been killed.

[3] = 0.8 ppm a.i. + AMS and RME 1000 ppm each
[4] = 0.8 ppm a.i. + ammonium sulphate 1000 ppm
[5] = 0.8 ppm a.i. + rapeseed oil methyl ester 1000 ppm
[6] = Aphis gossypii, 144 h, read-out: Kill in % after 6 days a.i.
[7] = 4 ppm a.i. + AMS and RME 1000 ppm each
[8] = 4 ppm a.i. + ammonium sulphate 1000 ppm
[9] = 4 ppm a.i. + rapeseed oil methyl ester 1000 ppm
[10] = Myzus persicae, 144 h, read-out: Kill in % after 6 days a.i.
[11] = 20 ppm a.i. + AMS and RME 1000 ppm each
[12] = 20 ppm a.i. + ammonium sulphate 1000 ppm
[13] = 20 ppm a.i. + rapeseed oil methyl ester 1000 ppm
[14] = 100 ppm a.i. + AMS and RME 1000 ppm each
[15] = 100 ppm a.i. + ammonium sulphate 1000 ppm
[16] = 100 ppm a.i. + rapeseed oil methyl ester 1000 ppm

| SMILES | Kill in % after 6 days +AMS + RME [1, 3] | Kill in % after 6 days +AMS [1, 4] | Kill in % after 6 days +RME [1, 5] | pest or weed control at 0.8 ppm [1, 6] | Kill in % after 6 days +AMS + RME [2, 3] | Kill in % after 6 days +AMS [2, 4] | Kill in % after 6 days +RME [2, 5] | Kill in % after 6 days +AMS + RME [2, 7] | Kill in % after 6 days +AMS [2, 8] | Kill in % after 6 days +RME [2, 9] | pest or weed control at 0.8 ppm [2, 10] | pest or weed control at 4 ppm [2, 10] | Kill in % after 6 days +AMS + RME [1, 7] | Kill in % after 6 days +AMS [1, 8] | Kill in % after 6 days +RME [1, 9] | pest or weed control at 4 ppm [1, 6] | other results |
| --- | --- | --- | --- | --- | --- | --- | --- | --- | --- | --- | --- | --- | --- | --- | --- | --- | --- |
| O=C1C=C(N(Cc2cnc(Cl)c(F)c2)CC(F)F)CO1 [Compound I-17, 4-{[(6-chloro-5-fluoropyrid-3-yl)methyl](2,2-difluoroethyl)amino}furan-2(5H)-one] | 40% | 20% | 40% | 0% | 25% | 5% | 35% | 100% | 99% | 100% | 0% | 95% |  |  |  |  |  |
| C#CCN(Cc1ccc(Cl)nc1)C1=CC(=O)CCC1 [Compound I-36, 3-{[(6-chloropyrid-3-yl)methyl](prop-2-yn-1-yl)amino}cyclohex-2-en-1-one] |  |  |  |  |  |  |  |  |  |  |  |  |  |  |  |  | Kill in % after 6 days +AMS + RME [1, 11]: 65%; Kill in % after 6 days +AMS [1, 12]: 15%; Kill in % after 6 days +RME [1, 13]: 45%; Kill in % after 6 days +AMS + RME [1, 14]: 99%; Kill in % after 6 days +AMS [1, 15]: 98%; Kill in % after 6 days +RME [1, 16]: 80%; pest or weed control at 20 ppm ([1]; Aphis gossypii, 144 h, 20 ppm a.i. alone, read-out: Kill in % after 6 days a.i.): 30%; pest or weed control at 100 ppm [1, 6]: 55%; Kill in % after 6 days +AMS + RME [2, 11]: 85%; Kill in % after 6 days +AMS [2, 12]: 25%; Kill in % after 6 days +RME [2, 13]: 85%; pest or weed control at 20 ppm [2, 10]: 40% |
| CN(Cc1ccc(Br)nc1)C1=CC(=O)OC1 [Compound I-26, 4-{[(6-bromopyrid-3-yl)methyl](methyl)amino}furan-2(5H)-one] | 98% | 70% | 98% | 90% | 95% | 55% | 100% |  |  |  | 65% |  |  |  |  |  |  |
| O=C1C=C(N(Cc2cnc(Cl)c(F)c2)C2CC2)CO1 [Compound I-13, 4-{[(6-chloro-5-fluoropyrid-3-yl)methyl](cyclopropyl)amino}furan-2(5H)-one] | 20% | 5% | 5% | 0% | 90% | 5% | 35% |  |  |  | 5% |  | 75% | 65% | 75% | 80% |  |
| O=C1C=C(N(CCF)Cc2ccc(Br)nc2)CO1 [Compound I-1, 4-{[(6-bromopyrid-3-yl)methyl](2-fluoroethyl)amino}furan-2(5H)-one] | 95% | 20% | 50% | 25% | 35% | 0% | 25% | 99% | 95% | 99% | 0% | 35% |  |  |  |  |  |
| CN(Cc1ccc(Cl)nc1)C1=CC(=O)CCC1 [Compound I-38, 3-{[(6-chloropyrid-3-yl)methyl](methyl)amino}cyclohex-2-en-1-one] |  |  |  |  |  |  |  | 70% | 5% | 65% |  | 5% |  |  |  |  | Kill in % after 6 days +AMS + RME [1, 14]: 55%; Kill in % after 6 days +AMS [1, 15]: 90%; Kill in % after 6 days +RME [1, 16]: 70%; pest or weed control at 100 ppm [1, 6]: 45% |
| O=C1C=C(N(Cc2ccc(F)nc2)CC(F)F)CO1 [Compound I-3, 4-{[(6-fluoropyrid-3-yl)methyl](2,2-difluoroethyl)amino}furan-2(5H)-one] | 90% | 15% | 35% | 0% |  |  |  | 100% | 80% | 85% |  | 0% |  |  |  |  |  |
| CN(Cc1cccnc1)C1=CC(=O)OC1 [Compound I-21, 4-[methyl(pyrid-3-ylmethyl)amino]furan-2(5H)-one] |  |  |  |  |  |  |  |  |  |  |  |  | 45% | 5% | 50% | 10% | Kill in % after 6 days +AMS + RME [2, 14]: 65%; Kill in % after 6 days +AMS [2, 15]: 70%; Kill in % after 6 days +RME [2, 16]: 90%; pest or weed control at 100 ppm ([2]; Myzus persicae, 144 h, 100 ppm a.i. alone, read-out: Kill in % after 6 days a.i.): 50% |
| O=C1C=C(N(Cc2cnc(Cl)c(Cl)c2)C2CC2)CO1 [Compound I-9, 4-{[(5,6-dichloropyrid-3-yl)methyl](cyclopropyl)amino}furan-2(5H)-one] | 30% | 0% | 15% | 0% |  |  |  | 70% | 15% | 60% |  | 0% |  |  |  |  |  |
| CN(Cc1cnc(Br)c(F)c1)C1=CC(=O)OC1 [Compound I-11, 4-{[(6-bromo-5-fluoropyrid-3-yl)methyl](methyl)amino}furan-2(5H)-one] | 99% | 55% | 95% | 15% | 99% | 95% | 99% |  |  |  | 85% |  |  |  |  |  | Kill in % after 6 days +AMS + RME ([2]; 0.16 ppm a.i. + AMS and RME 1000 ppm each): 90%; Kill in % after 6 days +AMS ([2]; 0.16 ppm a.i. + ammonium sulphate 1000 ppm): 0%; Kill in % after 6 days +RME ([2]; 0.16 ppm a.i. + rapeseed oil methyl ester 1000 ppm): 0%; pest or weed control at 0.16 ppm ([2]; Myzus persicae, 144 h, 0.16 ppm a.i. alone, read-out: Kill in % after 6 days a.i.): 0% |
| CN(Cc1cnc(Cl)c(Cl)c1)C1=CC(=O)OC1 [Compound I-10, 4-{[(5,6-dichloropyrid-3-yl)methyl](methyl)amino}furan-2(5H)-one] |  |  |  |  | 99% | 0% | 90% |  |  |  | 0% |  | 99% | 99% | 85% | 65% |  |
| O=C1C=C(N(CCF)Cc2cnc(Cl)c(Cl)c2)CO1 [Compound I-14, 4-{[(5,6-dichloropyrid-3-yl)methyl](2-fluoroethyl)amino}furan-2(5H)-one] | 70% | 5% | 40% | 0% |  |  |  | 95% | 60% | 95% |  | 25% |  |  |  |  |  |
| O=C1C=C(N(Cc2ccc(Cl)nc2)C2CC2)CC1 [Compound I-19, 3-{[(6-chloropyrid-3-yl)methyl](cyclopropyl)amino}cyclopent-2-en-1-one] | 50% | 0% | 40% | 0% |  |  |  |  |  |  |  |  | 80% | 40% | 85% | 15% | Kill in % after 6 days +AMS + RME [2, 11]: 100%; Kill in % after 6 days +AMS [2, 12]: 80%; Kill in % after 6 days +RME [2, 13]: 98%; pest or weed control at 20 ppm [2, 10]: 80% |
